From ChEMBL document CHEMBL4808186, “Structure-Based Discovery of Pyrimidine Aminobenzene Derivatives as Potent Oral Reversal Agents against P-gp- and BCRP-Mediated Multidrug Resistance” (J Med Chem, 2021)
Calls of active or inactive are those of the source. No cut-off for these calls is given here.

How the values were obtained:
MDCK-II [1] = assay: cells; details: Canis lupus familiaris, 48 h
MDCK-II [2] = assay: Inhibition of BCRP-mediated multidrug resistance in MDCK-II cells assessed as mitoxantrone accumulation at 0.1 to 5 uM pretreated 1 hr followed by treated with mitoxantrone measured after 180 mins by flow cytometry; assay type: cell-based; details: Canis lupus familiaris, dose 0.1-5 µM, time 240.0 min
MDCK-II [3] = assay: cells; details: Canis lupus familiaris, 48 h; remark: listed apart in the source
K562 [4] = assay: Cytotoxicity against human K562 cells incubated for 48 hrs by MTT assay; assay type: functional, cell-based; details: K562, 48 h
K562/A02 = assay: Cytotoxicity against P-gp overexpressing human K562/A02 cells incubated for 48 hrs by MTT assay; assay type: functional, cell-based; details: K562/A02, 48 h
[5] = n-Octanol/water partition coefficient, logP of the compound by UHPLC analysis; assay type: physicochemical
[6] = molecular target: T1, ATP-dependent translocase ABCB1 (Homo sapiens, UniProt P08183); assay: Inhibition of P-gp-mediated multidrug resistance in human K562/A02 cells assessed as Adriamycin accumulation at 1 to 10 uM pretreated 1 hr followed by treated with adriamycin measured after 180 mins by fluorescence microscopy; assay type: cell-based; details: k562/a02, 4 h, dose 1-10 µM, time 240 min
[7] = molecular target: T1, ATP-dependent translocase ABCB1; assay: Inhibition of P-gp-mediated multidrug resistance in human K562/A02 cells assessed as Adriamycin accumulation pretreated 1 hr followed by treated with adriamycin measured after 180 mins by flow cytometry; assay type: cell-based; details: k562/a02, 4 h, time 240 min
K562 [8] = assay: cells; details: Homo sapiens, K562, 48 h, read-out: Activity

T1 sequence (P08183 whole entry): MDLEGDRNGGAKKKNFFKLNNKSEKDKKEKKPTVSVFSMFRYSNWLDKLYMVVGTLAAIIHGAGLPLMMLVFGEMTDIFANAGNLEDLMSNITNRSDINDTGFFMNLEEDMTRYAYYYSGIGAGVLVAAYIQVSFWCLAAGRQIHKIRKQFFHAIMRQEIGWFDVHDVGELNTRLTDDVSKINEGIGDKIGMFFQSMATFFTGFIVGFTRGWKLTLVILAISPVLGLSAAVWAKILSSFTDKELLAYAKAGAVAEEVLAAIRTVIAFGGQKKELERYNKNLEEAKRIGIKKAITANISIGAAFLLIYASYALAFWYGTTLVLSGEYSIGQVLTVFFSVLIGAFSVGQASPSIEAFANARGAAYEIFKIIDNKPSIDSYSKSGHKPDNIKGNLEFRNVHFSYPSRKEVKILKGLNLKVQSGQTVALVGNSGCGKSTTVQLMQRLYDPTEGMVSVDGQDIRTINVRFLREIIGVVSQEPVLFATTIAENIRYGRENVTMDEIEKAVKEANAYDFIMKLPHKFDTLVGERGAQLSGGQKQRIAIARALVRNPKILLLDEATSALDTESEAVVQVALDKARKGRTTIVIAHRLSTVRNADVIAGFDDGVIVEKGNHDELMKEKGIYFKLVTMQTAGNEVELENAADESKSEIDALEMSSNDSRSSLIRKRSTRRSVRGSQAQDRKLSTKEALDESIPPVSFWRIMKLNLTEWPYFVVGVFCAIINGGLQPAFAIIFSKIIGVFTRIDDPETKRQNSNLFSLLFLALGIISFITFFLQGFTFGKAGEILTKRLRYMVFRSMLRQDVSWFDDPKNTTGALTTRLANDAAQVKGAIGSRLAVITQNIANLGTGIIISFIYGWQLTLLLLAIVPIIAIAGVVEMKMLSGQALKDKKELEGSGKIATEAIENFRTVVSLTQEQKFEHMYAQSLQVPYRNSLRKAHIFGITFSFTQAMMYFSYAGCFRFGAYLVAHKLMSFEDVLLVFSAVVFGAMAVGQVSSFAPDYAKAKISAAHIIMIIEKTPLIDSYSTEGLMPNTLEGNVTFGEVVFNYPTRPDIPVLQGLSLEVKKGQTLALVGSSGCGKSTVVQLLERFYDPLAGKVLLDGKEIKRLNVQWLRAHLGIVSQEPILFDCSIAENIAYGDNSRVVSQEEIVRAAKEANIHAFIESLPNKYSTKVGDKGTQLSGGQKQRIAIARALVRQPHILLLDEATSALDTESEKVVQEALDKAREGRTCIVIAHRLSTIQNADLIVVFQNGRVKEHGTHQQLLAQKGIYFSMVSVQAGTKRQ

COc1ccc2c3c([nH]c2c1)[C@H](CC(C)C)N1C(=O)[C@H](CCC(=O)OC(C)(C)C)NC(=O)[C@@H]1C3
IC50 (MDCK-II [1]): 58.3 µM
Activity (MDCK-II [2]): Active
IC50 (MDCK-II [3]): 87.2 µM
IC50 (K562 [4]): 71.5 µM
IC50 (K562/A02; read-out: IC50): 58.7 µM

COc1cc2c(cc1OC)CN(CCc1ccc(NC(=O)c3ccc(C)c(Nc4nccc(-c5ccc(F)cc5)n4)c3)cc1)CC2
IC50 (MDCK-II [1]): > 100 µM
IC50 (MDCK-II [3]): > 100 µM
IC50 (K562 [4]): > 100 µM
logP [5]: 1.19
IC50 (K562/A02; read-out: IC50): > 100 µM

COc1cc2c(cc1OC)CN(CCNC(=O)c1ccc(C)c(Nc3nccc(-c4cccc(O)c4)n3)c1)CC2
IC50 (MDCK-II [1]): 72.6 µM
IC50 (MDCK-II [3]): > 100 µM
IC50 (K562 [4]): > 100 µM
IC50 (K562/A02; read-out: IC50): 57.5 µM

COc1cc2c(cc1OC)CN(CCc1ccc(NC(=O)c3ccc(C)c(Nc4nccc(-c5ccccn5)n4)c3)cc1)CC2
IC50 (MDCK-II [1]): > 100 µM
IC50 (MDCK-II [3]): > 100 µM
IC50 (K562 [4]): > 100 µM
logP [5]: 1.73
IC50 (K562/A02; read-out: IC50): 89.6 µM

COc1ccc(CCN(C)CCCC(C#N)(c2ccc(OC)c(OC)c2)C(C)C)cc1OC (stereo unspecified)
Activity [6]: Active
Activity [7]: Dose-Dependent Effect
IC50 (K562 [4]): > 100 µM
IC50 (K562/A02; read-out: IC50): > 100 µM

COc1cc2c(cc1OC)CN(CCc1ccc(NC(=O)c3ccc(C)c(Nc4nccc(-c5cccc(O)c5)n4)c3)cc1)CC2
IC50 (MDCK-II [1]): > 100 µM
IC50 (MDCK-II [3]): > 100 µM
IC50 (K562 [4]): > 100 µM
logP [5]: 2.28
IC50 (K562/A02; read-out: IC50): 84.2 µM

COc1cc2c(cc1OC)CN(CCc1ccc(NC(=O)c3ccc(C)c(Nc4nccc(-c5ccccc5O)n4)c3)cc1)CC2
IC50 (MDCK-II [1]): > 100 µM
IC50 (MDCK-II [3]): > 100 µM
IC50 (K562 [4]): > 100 µM
logP [5]: 2.77
IC50 (K562/A02; read-out: IC50): > 100 µM

COc1cc2c(cc1OC)CN(CCc1ccc(NC(=O)c3ccc(C)c(Nc4nccc(-c5ccc(C)cc5)n4)c3)cc1)CC2
IC50 (MDCK-II [1]): 61.3 µM
IC50 (MDCK-II [3]): > 100 µM
IC50 (K562 [4]): > 100 µM

COc1cc2c(cc1OC)CN(CCc1ccc(NC(=O)c3cc(=O)c4ccccc4o3)cc1)CC2
IC50 (MDCK-II [1]): > 100 µM
IC50 (MDCK-II [3]): > 100 µM
IC50 (K562 [4]): > 100 µM
logP [5]: 0.93
IC50 (K562/A02; read-out: IC50): > 100 µM

COc1cc2c(cc1OC)CN(CCNC(=O)c1ccc(C)c(Nc3nccc(-c4ccccc4O)n3)c1)CC2
IC50 (MDCK-II [3]): 91.4 µM
IC50 (K562 [4]): > 100 µM
logP [5]: 2.31
IC50 (K562/A02; read-out: IC50): 52.3 µM

COc1cc2c(cc1OC)CN(CCNC(=O)c1ccc(C)c(Nc3nccc(-c4cccs4)n3)c1)CC2
IC50 (MDCK-II [1]): 61.5 µM
IC50 (MDCK-II [3]): > 100 µM
IC50 (K562 [4]): > 100 µM
logP [5]: 1.94
IC50 (K562/A02; read-out: IC50): 72 µM

COc1cc2c(cc1OC)CN(CCc1ccc(NC(=O)c3cc(=O)c4c(OC)cccc4o3)cc1)CC2
IC50 (MDCK-II [1]): > 100 µM
IC50 (MDCK-II [3]): > 100 µM
IC50 (K562 [4]): > 100 µM
logP [5]: 0.76
IC50 (K562/A02; read-out: IC50): > 100 µM

COc1ccc(-c2ccnc(Nc3cc(C(=O)NCCN4CCc5cc(OC)c(OC)cc5C4)ccc3C)n2)cc1
IC50 (MDCK-II [1]): 55.2 µM
IC50 (MDCK-II [3]): > 100 µM
IC50 (K562 [4]): > 100 µM
logP [5]: 2.16
IC50 (K562/A02; read-out: IC50): 64.9 µM

COc1cc2c(cc1OC)CN(CCNC(=O)c1ccc(C)c(Nc3nccc(-c4ccc(C)cc4)n3)c1)CC2
IC50 (MDCK-II [1]): 42.1 µM
IC50 (MDCK-II [3]): > 100 µM
IC50 (K562 [4]): 73.8 µM
IC50 (K562/A02; read-out: IC50): 58.7 µM

Cc1ccc(NC(=O)c2ccc(CN3CCN(C)CC3)cc2)cc1Nc1nccc(-c2cccnc2)n1 [IMATINIB]
IC50 (MDCK-II [1]): > 100 µM
viability at 5 µM (K562 [8]): 81.6%
IC50 (MDCK-II [3]): 65.8 µM
IC50 (K562 [4]): 87.3 µM
IC50 (K562/A02): 75.7 µM

COc1cc2c(cc1OC)CN(CCc1ccc(NC(=O)c3cc(=O)c4ccc(C)cc4o3)cc1)CC2
IC50 (MDCK-II [1]): 88.7 µM
IC50 (MDCK-II [3]): > 100 µM
IC50 (K562 [4]): > 100 µM
logP [5]: 1.87
IC50 (K562/A02; read-out: IC50): > 100 µM

COc1ccc(-c2ccnc(Nc3cc(C(=O)Nc4ccc(CCN5CCc6cc(OC)c(OC)cc6C5)cc4)ccc3C)n2)cc1
IC50 (MDCK-II [1]): > 100 µM
IC50 (MDCK-II [3]): > 100 µM
IC50 (K562 [4]): > 100 µM
logP [5]: 1.35
IC50 (K562/A02; read-out: IC50): > 100 µM

COc1cc2c(cc1OC)CN(CCNC(=O)c1ccc(C)c(Nc3nccc(-c4ccccn4)n3)c1)CC2
IC50 (MDCK-II [1]): 64.2 µM
IC50 (MDCK-II [3]): > 100 µM
IC50 (K562 [4]): > 100 µM
logP [5]: 1.71
IC50 (K562/A02; read-out: IC50): 89.6 µM

COc1cc2c(cc1OC)CN(CCc1ccc(NC(=O)c3ccc(C)c(Nc4nccc(-c5ccccc5)n4)c3)cc1)CC2
IC50 (MDCK-II [1]): 79.7 µM
IC50 (MDCK-II [3]): > 100 µM
IC50 (K562 [4]): > 100 µM
logP [5]: 1.89
IC50 (K562/A02; read-out: IC50): > 100 µM

COc1cc2c(cc1OC)CN(CCNC(=O)c1ccc(C)c(Nc3nccc(-c4ccccc4)n3)c1)CC2
IC50 (MDCK-II [1]): 4740 µM
IC50 (MDCK-II [3]): > 100 µM
IC50 (K562 [4]): > 100 µM
logP [5]: 1.9
IC50 (K562/A02; read-out: IC50): 66.2 µM

COc1cc2c(cc1OC)CN(CCc1ccc(NC(=O)c3ccc(C)c(Nc4nccc(-c5cccs5)n4)c3)cc1)CC2
IC50 (MDCK-II [1]): > 100 µM
IC50 (MDCK-II [3]): > 100 µM
IC50 (K562 [4]): > 100 µM
logP [5]: 1.48
IC50 (K562/A02; read-out: IC50): > 100 µM

COc1cc2c(cc1OC)CN(CCNC(=O)c1ccc(C)c(Nc3nccc(-c4cccnc4)n3)c1)CC2
IC50 (MDCK-II [1]): > 100 µM
IC50 (MDCK-II [3]): > 100 µM
IC50 (K562 [4]): > 100 µM
logP [5]: 0.8
IC50 (K562/A02; read-out: IC50): > 100 µM

COc1cc2c(cc1OC)CN(CCNC(=O)c1ccc(C)c(Nc3nccc(-c4ccc(F)cc4)n3)c1)CC2
IC50 (MDCK-II [1]): 57.6 µM
IC50 (MDCK-II [3]): > 100 µM
IC50 (K562 [4]): > 100 µM
logP [5]: 2.04
IC50 (K562/A02; read-out: IC50): 75.3 µM

COc1cc2c(cc1OC)CN(CCc1ccc(NC(=O)c3cc(=O)c4cc(F)ccc4o3)cc1)CC2
IC50 (MDCK-II [1]): > 100 µM
IC50 (MDCK-II [3]): > 100 µM
IC50 (K562 [4]): > 100 µM
IC50 (K562/A02; read-out: IC50): 82 µM

COc1cc2c(cc1OC)CN(CCc1ccc(NC(=O)c3ccc(C)c(Nc4nccc(-c5cccnc5)n4)c3)cc1)CC2
IC50 (MDCK-II [1]): > 100 µM
IC50 (MDCK-II [3]): > 100 µM
IC50 (K562 [4]): > 100 µM
logP [5]: 1.86
IC50 (K562/A02; read-out: IC50): 60.4 µM

COc1cc2c(cc1OC)CN(CCc1ccc(NC(=O)c3ccc(C)c(Nc4nccc(-c5ccco5)n4)c3)cc1)CC2
IC50 (MDCK-II [1]): > 100 µM
IC50 (MDCK-II [3]): > 100 µM
IC50 (K562 [4]): > 100 µM
logP [5]: 1.7
IC50 (K562/A02; read-out: IC50): > 100 µM

COc1cc2c(cc1OC)CN(CCc1ccc(NC(=O)c3cc(OC)c(OC)cc3NC(=O)c3cnc4ccccc4c3)cc1)CC2
Activity [6]: Active
IC50 (MDCK-II [1]): 83.6 µM
viability at 5 µM (K562 [8]): 61.3%
Activity (MDCK-II [2]): Active
Activity [7]: Dose-Dependent Effect
IC50 (MDCK-II [3]): > 100 µM
IC50 (K562 [4]): > 100 µM
IC50 (K562/A02; read-out: IC50): > 100 µM

COc1cc2c(cc1OC)CN(CCc1ccc(NC(=O)c3cc(=O)c4c(O)cccc4o3)cc1)CC2
IC50 (MDCK-II [1]): 68.4 µM
IC50 (MDCK-II [3]): 85.7 µM
IC50 (K562 [4]): > 100 µM
logP [5]: 1.78
IC50 (K562/A02; read-out: IC50): 45.3 µM
